Data set [1] addresses Protein arginine N-methyltransferase 5 (Homo sapiens, UniProt O14744). Nature of the data set: Inhibition of PRMT5 (unknown origin) by radiometric-based scintillation proximity assay.
The target in data set [2] is Epidermal growth factor receptor (Homo sapiens, UniProt P00533). The experiment in a line: Inhibition of wild type GST-tagged EGFR catalytic domain (unknown origin) expressed in insect cells using poly(Glu-Tyr) as substrate incubated for 6 mins by ELISA. On the set-up: species or system Insect cell.
Sequence of Epidermal growth factor receptor (P00533 whole entry, the tested form may be a part): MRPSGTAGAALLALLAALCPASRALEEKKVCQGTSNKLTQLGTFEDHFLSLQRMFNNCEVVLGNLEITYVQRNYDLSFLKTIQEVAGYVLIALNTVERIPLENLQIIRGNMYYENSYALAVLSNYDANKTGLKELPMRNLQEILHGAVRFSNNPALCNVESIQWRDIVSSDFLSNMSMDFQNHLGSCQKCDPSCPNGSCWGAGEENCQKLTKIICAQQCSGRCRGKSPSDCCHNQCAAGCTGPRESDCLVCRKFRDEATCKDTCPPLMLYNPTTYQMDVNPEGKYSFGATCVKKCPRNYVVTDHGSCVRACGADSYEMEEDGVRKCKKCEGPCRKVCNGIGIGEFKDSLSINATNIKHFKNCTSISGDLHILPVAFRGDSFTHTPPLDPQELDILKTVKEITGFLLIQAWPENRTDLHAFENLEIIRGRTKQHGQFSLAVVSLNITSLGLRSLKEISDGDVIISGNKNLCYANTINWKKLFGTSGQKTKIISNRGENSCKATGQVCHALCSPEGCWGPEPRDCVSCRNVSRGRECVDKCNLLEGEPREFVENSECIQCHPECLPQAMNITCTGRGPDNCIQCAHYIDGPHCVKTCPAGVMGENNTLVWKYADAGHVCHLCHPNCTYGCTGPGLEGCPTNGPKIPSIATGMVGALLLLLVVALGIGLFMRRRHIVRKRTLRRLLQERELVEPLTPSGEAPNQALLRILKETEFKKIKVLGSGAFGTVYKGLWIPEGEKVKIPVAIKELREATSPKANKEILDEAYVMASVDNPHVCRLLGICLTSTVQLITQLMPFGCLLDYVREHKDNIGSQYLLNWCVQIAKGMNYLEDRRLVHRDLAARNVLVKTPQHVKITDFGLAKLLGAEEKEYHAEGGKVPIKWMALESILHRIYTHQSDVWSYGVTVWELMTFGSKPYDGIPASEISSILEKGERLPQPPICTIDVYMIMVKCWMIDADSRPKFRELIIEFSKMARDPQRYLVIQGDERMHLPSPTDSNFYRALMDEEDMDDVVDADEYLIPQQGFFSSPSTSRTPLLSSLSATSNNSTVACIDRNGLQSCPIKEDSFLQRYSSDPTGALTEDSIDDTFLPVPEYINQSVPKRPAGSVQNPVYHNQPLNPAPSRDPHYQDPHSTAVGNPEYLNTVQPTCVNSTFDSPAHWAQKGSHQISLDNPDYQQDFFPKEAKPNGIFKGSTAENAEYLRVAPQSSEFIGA
Another data set deals with MCF7. Nature of the data set: Antiproliferative activity against human MCF7 cells assessed as inhibition of cell growth by CCK-8 assay.
In another data set the test system is HeLa. Nature of the data set: Antiproliferative activity against human HeLa cells assessed as inhibition of cell growth by CCK-8 assay.
A short description of data set [3]: Metabolic stability in rat liver microsomes assessed as compound remaining at […] measured after 30 mins in presence of NADPH by LC-MS/MS analysis. The class given is ADME, Microsome. The conditions noted are these: read-out: Stability.
For the next data set, the system named is A549. The experiment in a line: Antiproliferative activity against human A549 cells assessed as inhibition of cell growth by CCK-8 assay.
The test system of another data set is MDA-MB-231. The experiment in a line: Antiproliferative activity against human MDA-MB-231 cells assessed as inhibition of cell growth by CCK-8 assay.
The nature of data set [4]: Metabolic stability in human liver microsomes assessed as compound remaining at […] measured after 30 mins in presence of NADPH by LC-MS/MS analysis. The settings on record: read-out: Stability. The class given is ADME, Microsome.
The subject of a further data set is HepG2. The experiment in a line: Antiproliferative activity against human HepG2 cells assessed as inhibition of cell growth by CCK-8 assay.
Data set [5] has as its target Protein arginine N-methyltransferase 1 (Homo sapiens, UniProt Q99873). Nature of the data set: Inhibition of PRMT1 (unknown origin) using [3H]SAM as substrate preincubated for 15 mins followed by substrate addition and measured after 60 mins by microbeta scintillation counting analysis.
For data set [6], the target named is T1, Histone-arginine methyltransferase CARM1 (Homo sapiens, UniProt Q86X55).
T1 sequence (Q86X55 whole entry): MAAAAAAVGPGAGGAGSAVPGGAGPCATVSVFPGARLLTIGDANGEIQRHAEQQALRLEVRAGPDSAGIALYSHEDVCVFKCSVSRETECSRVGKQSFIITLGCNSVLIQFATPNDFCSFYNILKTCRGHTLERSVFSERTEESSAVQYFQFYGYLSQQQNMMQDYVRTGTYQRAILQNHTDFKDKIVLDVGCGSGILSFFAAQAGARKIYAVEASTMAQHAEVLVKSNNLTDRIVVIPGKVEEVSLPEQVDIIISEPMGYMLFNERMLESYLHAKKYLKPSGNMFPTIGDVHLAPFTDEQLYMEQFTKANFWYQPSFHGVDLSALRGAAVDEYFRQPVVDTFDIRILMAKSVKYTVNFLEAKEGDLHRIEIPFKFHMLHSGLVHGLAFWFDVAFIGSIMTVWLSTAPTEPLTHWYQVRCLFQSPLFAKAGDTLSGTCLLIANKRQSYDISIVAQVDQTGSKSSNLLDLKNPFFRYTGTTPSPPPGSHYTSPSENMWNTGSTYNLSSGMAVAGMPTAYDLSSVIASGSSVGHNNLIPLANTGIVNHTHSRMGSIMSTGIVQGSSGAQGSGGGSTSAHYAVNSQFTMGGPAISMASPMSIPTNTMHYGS
Nature of the data set: Inhibition of PRMT4 (unknown origin) preincubated for 15 mins followed by substrate addition and measured after 60 mins by AlphaLISA assay.

pIC50: −log10 of the molar value.

Sequence of Protein arginine N-methyltransferase 5 (O14744 whole entry, the tested form may be a part): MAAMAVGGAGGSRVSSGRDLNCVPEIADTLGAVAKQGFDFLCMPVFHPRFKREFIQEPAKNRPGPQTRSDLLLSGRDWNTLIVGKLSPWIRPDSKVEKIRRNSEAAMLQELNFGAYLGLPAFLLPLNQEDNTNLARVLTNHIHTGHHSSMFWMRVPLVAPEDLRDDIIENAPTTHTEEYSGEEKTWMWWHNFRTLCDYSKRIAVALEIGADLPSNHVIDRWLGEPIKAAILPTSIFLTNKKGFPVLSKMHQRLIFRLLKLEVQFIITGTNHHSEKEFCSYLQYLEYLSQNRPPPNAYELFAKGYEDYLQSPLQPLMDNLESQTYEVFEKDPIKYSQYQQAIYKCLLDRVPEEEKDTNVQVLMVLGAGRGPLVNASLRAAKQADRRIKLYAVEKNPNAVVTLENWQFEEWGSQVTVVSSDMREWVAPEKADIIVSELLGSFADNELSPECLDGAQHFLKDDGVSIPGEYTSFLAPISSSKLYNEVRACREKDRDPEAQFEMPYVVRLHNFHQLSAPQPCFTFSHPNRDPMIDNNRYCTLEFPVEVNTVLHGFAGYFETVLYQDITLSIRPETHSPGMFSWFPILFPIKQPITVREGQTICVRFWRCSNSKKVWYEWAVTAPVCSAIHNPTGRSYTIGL
Sequence of Protein arginine N-methyltransferase 1 (Q99873 whole entry): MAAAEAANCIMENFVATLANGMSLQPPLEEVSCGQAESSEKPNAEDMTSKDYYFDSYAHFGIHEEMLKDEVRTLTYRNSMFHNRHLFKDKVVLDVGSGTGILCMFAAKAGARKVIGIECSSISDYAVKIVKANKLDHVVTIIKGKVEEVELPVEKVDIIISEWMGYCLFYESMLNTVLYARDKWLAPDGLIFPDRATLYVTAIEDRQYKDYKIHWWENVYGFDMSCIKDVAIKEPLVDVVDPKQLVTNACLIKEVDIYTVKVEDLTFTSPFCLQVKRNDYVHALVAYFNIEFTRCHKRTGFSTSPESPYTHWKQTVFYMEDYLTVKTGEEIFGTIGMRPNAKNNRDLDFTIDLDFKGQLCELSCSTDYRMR

As for `O=C(Nc1ccc(C2NCCc3c2[nH]c2ccccc32)cc1)c1ccc(Cl)cc1` (centres undefined), the negative logarithm of the IC50 (pIC50) in [1] was less than 4.00.
With `COc1cc(C2NCCc3c2[nH]c2ccccc32)ccc1OCc1ccc(F)c(C(F)(F)F)c1` (centres undefined), the pIC50 in data set [2] and in data set [1] was less than 4.00 in each case.
In data set [1], `O=C(Nc1ccc(C2NCCc3c2[nH]c2ccccc32)cc1)c1ccc(Br)cc1` (centres undefined) gave a negative logarithm of the IC50 (pIC50) of less than 4.00.
As to `CN1CCc2c([nH]c3ccccc23)C1c1ccc(NC(=O)c2ccccc2)cc1` (centres undefined), the pIC50 in data set [2] and in data set [1] was less than 4.00 throughout.
Regarding `CN1CCc2c([nH]c3ccccc23)C1c1ccc(NC(=O)c2cccc(F)c2)cc1` (centres undefined), the negative logarithm of the IC50 (pIC50) in data set [2] and in data set [1] was less than 4.00 in each case.
`CN1CCc2c([nH]c3ccccc23)C1c1ccc(NC(=O)c2cccc([N+](=O)[O-])c2)cc1` (centres undefined): the negative-log IC50 (pIC50) in data set [2] and in data set [1] was less than 4.00 throughout.
Consider `COc1cc(C2NCCc3c2[nH]c2ccccc32)ccc1OCc1ccc(C#N)cc1F` (centres undefined), for which the pIC50 is 4.09 in data set [2]; 4.88 with MCF7; 4.87 in the data set with HeLa; 4.89 in the data set on A549; 5.21 with MDA-MB-231; less than 4.30 in the data set with HepG2. In data set [1], this compound gave a negative logarithm of the IC50 (pIC50) of 4.15. Besides, the remaining at 0.5 h in data set [3] is 35.9%; in [4], 40.6%.
For `O=C(Nc1ccc(C2NCCc3c2[nH]c2ccccc32)cc1)c1cccc([N+](=O)[O-])c1` (centres undefined), the negative logarithm of the IC50 (pIC50) in data set [2] is 4.22; in data set [1], 4.10.
Take `O=C(Nc1ccc(C2NCCc3c2[nH]c2ccccc32)cc1)c1ccc(C(F)(F)F)cc1` (centres undefined): the pIC50 in [1] is less than 4.00.
Turning to `COc1cc(COc2ccc(C3NCCc4c3[nH]c3ccccc43)cc2OC)ccc1F` (centres undefined), the negative logarithm of the IC50 (pIC50) is less than 4.00 in data set [2] and 4.63 in data set [1].
Taken in the same sequence, the figures for `COc1cc(C2c3[nH]c4ccccc4c3CCN2C)ccc1OC(=O)c1ccccc1` (centres undefined) were 4.06 and less than 4.00.
For `COc1cc(C2NCCc3c2[nH]c2ccccc32)ccc1OCc1ccc(F)cc1Cl` (centres undefined) the same measures were less than 4.00 and 4.12.
As to `O=C(Nc1ccc(C2NCCc3c2[nH]c2ccccc32)cc1)c1ccc(F)cc1` (centres undefined), the pIC50 in data set [1] is less than 4.00.
Consider `COc1cc(C2NCCc3c2[nH]c2ccccc32)ccc1OCc1ccccc1F` (centres undefined), for which the pIC50 in [2] was less than 4.00; in data set [1], 4.25.
On to `O=C(Nc1ccc(C2NCCc3c2[nH]c2ccccc32)cc1)c1ccccc1` (centres undefined), for which the pIC50 is 4.25 in [2] and 4.13 in data set [1].
Turning to `COc1cc(C2NCCc3c2[nH]c2ccccc32)ccc1OCc1ccc(F)c(C#N)c1` (centres undefined), the negative logarithm of the IC50 (pIC50) in data set [2] and in [1] was less than 4.00 throughout.
For `COc1cc(C2NCCc3c2[nH]c2ccccc32)ccc1OC(=O)c1ccccc1` (centres undefined), the results for the pIC50 in data set [2] and in data set [1] were 4.37 and 4.31, respectively. For the same compound, the remaining at 0.5 h in [3] turned out to be 15.1%; in data set [4] it was 20.6%.
For the compound `COC(=O)c1ccc(COc2ccc(C3NCCc4c3[nH]c3ccccc43)cc2OC)c(F)c1` (centres undefined), the pIC50 in data set [2] was 4.25; in data set [1], less than 4.00.
Take `COc1cc(C2NCCc3c2[nH]c2ccccc32)ccc1OCc1ccc(F)cc1` (centres undefined): the negative logarithm of the IC50 (pIC50) in [2] and in data set [1] was less than 4.00 in each case.
`Cc1ccccc1C(=O)Nc1ccc(C2NCCc3c2[nH]c2ccccc32)cc1` (centres undefined) had a negative logarithm of the IC50 (pIC50) in data set [1] of less than 4.00.
Still for that read-out and setting: next, `COC(=O)c1ccc(C(=O)Nc2ccc(C3NCCc4c3[nH]c3ccccc43)cc2)cc1` (centres undefined): less than 4.00.
Regarding `COc1cc(C2NCCc3c2[nH]c2ccccc32)ccc1OCc1ccc(OC(F)(F)F)c(Cl)c1` (centres undefined), the negative logarithm of the IC50 (pIC50) is 4.20 in [2]; 5.18 with MCF7; 5.16 in the data set on HeLa; 4.88 with A549; 4.88 with MDA-MB-231; 4.39 with HepG2. This compound also had a pIC50 in [1] of 4.33. Also, the remaining at 0.5 h in [3] worked out at 76.6%; in [4] it was 70%.
Compound `O=C(Nc1ccc(C2NCCc3c2[nH]c2ccccc32)cc1)c1cccc(Cl)c1` (centres undefined) gave a negative-log IC50 (pIC50) in [1] of 4.33.
`COC(=O)c1ccc(COc2ccc(C3NCCc4c3[nH]c3ccccc43)cc2OC)cc1` (centres undefined): the pIC50 in data set [2] was 4.28; in the data set with MCF7, 4.86; with HeLa, 4.87; with A549, 4.73; in the data set with MDA-MB-231, less than 4.30; in [5] it was less than 4.00. Besides, the negative-log IC50 (pIC50) in [6] is less than 4.00; with HepG2, less than 4.30; in data set [1], 4.67. Besides, the remaining at 0.5 h in [3] stood at 5.2%; in data set [4], 10.3%.
Turning to `CN1CCc2c([nH]c3ccccc23)C1c1ccc(NC(=O)c2ccc(F)c(C(F)(F)F)c2)cc1` (centres undefined), the negative-log IC50 (pIC50) in data set [2] and in [1] was less than 4.00 throughout.
For `O=C(Oc1ccc(C2NCCc3c2[nH]c2ccccc32)cc1)c1ccccc1` (centres undefined), the values for the negative logarithm of the IC50 (pIC50) in [2] and in data set [1] were 4.29 and 4.22, respectively. The figures for the remaining at 0.5 h in [3] and in [4] were 12.3% and 16.4%, respectively.
For `COc1cc(C2NCCc3c2[nH]c2ccccc32)ccc1OCc1ccc(B2OC(C)(C)C(C)(C)O2)cc1` (centres undefined), the pIC50 in data set [2] was 4.07; in data set [1], less than 4.00.
Taken in the same sequence, the figures for `O=C(Nc1ccc(C2NCCc3c2[nH]c2ccccc32)cc1)c1ccc(F)c(C(F)(F)F)c1` (centres undefined) were less than 4.00 and 4.18.
Compound `Cc1cccc(C(=O)Nc2ccc(C3NCCc4c3[nH]c3ccccc43)cc2)c1` (centres undefined) gave a pIC50 in data set [1] of less than 4.00.
With `O=C(Nc1ccc(C2NCCc3c2[nH]c2ccccc32)cc1)c1cccc(C(F)(F)F)c1` (centres undefined), the negative-log IC50 (pIC50) in [2] is 4.13; in data set [1], 4.06.
For the compound `O=C(Nc1ccc(C2NCCc3c2[nH]c2ccccc32)cc1)c1ccccc1F` (centres undefined), the negative logarithm of the IC50 (pIC50) in data set [1] was less than 4.00.
Take `COc1cc(C2NCCc3c2[nH]c2ccccc32)ccc1OCc1ccc(F)c(Br)c1` (centres undefined): the pIC50 in data set [2] was 4.29; in the data set with MCF7 it was 5.15; with HeLa, 5.16; in the data set on A549, 5.15; with MDA-MB-231, less than 4.30; in the data set with HepG2, 4.44. The compound further had a negative logarithm of the IC50 (pIC50) in data set [1] of 4.38. Further, the figures for the remaining at 0.5 h in data set [3] and in data set [4] were 57.8% and 65.4%, respectively.
`O=C(Nc1ccc(C2NCCc3c2[nH]c2ccccc32)cc1)c1cccc(F)c1` (centres undefined): the negative-log IC50 (pIC50) is 4.02 in data set [2] and 4.14 in data set [1].
For `CN1CCc2c([nH]c3ccccc23)C1c1ccc(NC(=O)c2cccc(Cl)c2)cc1` (centres undefined) the same measures were less than 4.00 and less than 4.00.
`COc1cc(C2NCCc3c2[nH]c2ccccc32)ccc1OCc1ccc(F)cc1Br` (centres undefined): the pIC50 in data set [2] is 4.13; in the data set on MCF7, 5.13; with HeLa, 5.15; in the data set with A549, 4.88; in the data set on MDA-MB-231, 4.89; in the data set with HepG2 it was less than 4.30. This compound had a pIC50 in data set [1] of 4.43. The remaining at 0.5 h in [3] stood at 66.5%; in [4] it was 61.1%.
Take `COc1cc(C2NCCc3c2[nH]c2ccccc32)ccc1OCc1ccc(C(C)(C)C)cc1` (centres undefined): the pIC50 was 4.60 in data set [2]; 5.42 with MCF7; 5.35 in the data set on HeLa; 4.91 in the data set on A549; 4.69 with MDA-MB-231; 4.58 in the data set on HepG2. The same compound gave a pIC50 in data set [1] of 4.37. For the same compound, the remaining at 0.5 h turned out to be 45.4% in data set [3] and 50.6% in data set [4].
Regarding `CN1CCc2c([nH]c3ccccc23)C1c1ccc(NC(=O)c2cccc(C(F)(F)F)c2)cc1` (centres undefined), the pIC50 in [2] and in data set [1] was less than 4.00 in each case.
In the case of `O=C(Nc1ccc(C2NCCc3c2[nH]c2ccccc32)cc1)c1ccc([N+](=O)[O-])cc1` (centres undefined), in data set [1], the pIC50 is less than 4.00.
The same measure, in the same setting: with `O=C(Nc1ccc(C2NCCc3c2[nH]c2ccccc32)cc1)c1cc(C(F)(F)F)cc(C(F)(F)F)c1` (centres undefined) the figure was less than 4.00.
On to `COc1cc(C2NCCc3c2[nH]c2ccccc32)ccc1OCc1ccccc1` (centres undefined), for which the pIC50 was less than 4.00 in [2] and 4.49 in [1].
For `CN1CCc2c([nH]c3ccccc23)C1c1ccc(OC(=O)c2ccccc2)cc1` (centres undefined) the same measures were less than 4.00 and less than 4.00.

Values taken from ChEMBL document CHEMBL5506008, “Synthesis and biological evaluation of 1-phenyl-tetrahydro-β-carboline-based first dual PRMT5/EGFR inhibitors as potential anticancer agents” (Eur J Med Chem, 2024).
